Results published in patent USRE47141E1, “Methods of treating fibrosis, cancer and vascular injuries” (EWHA University—Industry Collaboration Foundation, priority 2010, dated 2018).
pIC50: −log10 of the molar value. Where two headings read alike, the source gives them in different places.

Target: ALK5 (Homo sapiens (Human), UniProt P36897)
Test: Cell-free assay for inhibition of ALK5 kinase phosphorylation
Format: biochemical
[1] = read-out: IC50 on ALK5 kinase phosphorylation

Chain of ALK5 (P36897 34-503): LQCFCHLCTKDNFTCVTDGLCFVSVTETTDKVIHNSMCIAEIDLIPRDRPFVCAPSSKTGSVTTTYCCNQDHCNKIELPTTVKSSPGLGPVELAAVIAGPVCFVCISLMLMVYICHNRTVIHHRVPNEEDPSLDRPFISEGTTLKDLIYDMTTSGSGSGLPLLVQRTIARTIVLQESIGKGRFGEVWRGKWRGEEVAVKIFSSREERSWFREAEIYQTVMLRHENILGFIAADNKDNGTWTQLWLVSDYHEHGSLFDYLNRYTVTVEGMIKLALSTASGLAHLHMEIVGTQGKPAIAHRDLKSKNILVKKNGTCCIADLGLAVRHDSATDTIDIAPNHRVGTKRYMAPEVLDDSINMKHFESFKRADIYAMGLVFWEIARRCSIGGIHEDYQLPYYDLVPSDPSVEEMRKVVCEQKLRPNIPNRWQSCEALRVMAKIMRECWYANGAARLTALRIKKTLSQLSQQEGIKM

pIC50 [1] | Structure (SMILES) | pIC50
7.82 | COCc1cccc(NCc2nc(-c3ccc4ncnn4c3)c(-c3cccc(C)n3)[nH]2)c1 [Example 49, N-((4-([1,2,4]triazolo[1,5-a]pyridin-6-yl)-5-(6-methylpyridin-2-yl)-1H-imidazol-2-yl)methyl)-3-(methoxymethyl)aniline] | –
7.88 | Cc1cccc(-c2[nH]c(COc3ccccc3)nc2-c2ccc3ncnn3c2)n1 [Example 148, 6-(5-(6-methylpyridin-2-yl)-2-(phenoxymethyl)-1H-imidazol-4-yl)-[1,2,4]triazolo[1,5-a]pyridine] | –
8.04 | Cc1cccc(NCc2nc(-c3ccc4ncnn4c3)c(-c3cccc(C)n3)[nH]2)c1 [Example 24, N-((4-([1,2,4]triazolo[1,5-a]pyridin-6-yl)-5-(6-methylpyridin-2-yl)-1H-imidazol-2-yl)methyl)-3-methylaniline] | –
7.29 | COCc1ccc(NCc2nc(-c3ccc4ncnn4c3)c(-c3cccc(C)n3)[nH]2)cc1 [Example 50, N-((4-([1,2,4]triazolo[1,5-a]pyridin-6-yl)-5-(6-methylpyridin-2-yl)-1H-imidazol-2-yl)methyl)-4-(methoxymethyl)aniline] | –
7.96 | Cc1cccc(-c2[nH]c(CNc3cccc(CC#N)c3)nc2-c2ccc3ncnn3c2)n1 [Example 68, 2-(3-((4-([1,2,4]triazolo[1,5-a]pyridin-6-yl)-5-(6-methylpyridin-2-yl)-1H-imidazol-2-yl)methylamino)phenyl)acetonitrile] | –
8.01 | Cc1cccc(-c2[nH]c(CNc3ccc(F)c(F)c3)nc2-c2ccc3ncnn3c2)n1 [Example 8, N-((4-([1,2,4]triazolo[1,5-a]pyridin-6-yl)-5-(6-methylpyridin-2-yl)-1H-imidazol-2-yl)methyl)-3,4-difluoroaniline] | –
7.63 | CCc1cccc(-c2[nH]c(CNc3ccccc3F)nc2-c2ccc3ncnn3c2)n1 [Example 139, N-((4-([1,2,4]triazolo[1,5-a]pyridin-6-yl)-5-(6-ethylpyridin-2-yl)-1H-imidazol-2-yl)methyl)-2-fluoroaniline] | –
7.76 | Cc1cccc(-c2[nH]c(CNc3ccc(F)cc3)nc2-c2ccc3ncnn3c2)n1 [Example 6, N-((4-([1,2,4]triazolo[1,5-a]pyridin-6-yl)-5-(6-methylpyridin-2-yl)-1H-imidazol-2-yl)methyl)-4-fluoroaniline] | –
8.05 | Cc1cccc(-c2[nH]c(CNc3cccc(F)c3F)nc2-c2ccc3ncnn3c2)n1 [Example 7, N-((4-([1,2,4]triazolo[1,5-a]pyridin-6-yl)-5-(6-methylpyridin-2-yl)-1H-imidazol-2-yl)methyl)-2,3-difluoroaniline] | –
7.60 | Cc1cccc(-c2[nH]c(COc3ccccc3F)nc2-c2ccc3ncnn3c2)n1 [Example 149, 6-(2-((2-fluorophenoxy)methyl)-5-(6-methylpyridin-2-yl)-1H-imidazol-4-yl)-[1,2,4]triazolo[1,5-a]pyridine] | –
7.89 | CC(=O)c1cccc(NCc2nc(-c3ccc4ncnn4c3)c(-c3cccc(C)n3)[nH]2)c1 [Example 70, 1-(3-((4-([1,2,4]triazolo[1,5-a]pyridin-6-yl)-5-(6-methylpyridin-2-yl)-1H-imidazol-2-yl)methylamino)phenyl)ethanone] | –
7.32 | COc1ccc(NCc2nc(-c3ccc4ncnn4c3)c(-c3cccc(C)n3)[nH]2)cc1 [Example 44, N-((4-([1,2,4]triazolo[1,5-a]pyridin-6-yl)-5-(6-methylpyridin-2-yl)-1H-imidazol-2-yl)methyl)-4-methoxyaniline] | –
7.78 | COC(=O)c1cccc(NCc2nc(-c3ccc4ncnn4c3)c(-c3cccc(C)n3)[nH]2)c1 [Example 72, Methyl 3-((4-([1,2,4]triazolo[1,5-a]pyridin-6-yl)-5-(6-methylpyridin-2-yl)-1H-imidazol-2-yl)methylamino)benzoate] | –
7.22 | Cc1cccc(-c2[nH]c(CNc3ccc(OC(F)(F)F)cc3)nc2-c2ccc3ncnn3c2)n1 [Example 53, N-((4-([1,2,4]triazolo[1,5-a]pyridin-6-yl)-5-(6-methylpyridin-2-yl)-1H-imidazol-2-yl)methyl)-4-(trifluoromethoxy)aniline] | –
8.10 | CCc1cccc(NCc2nc(-c3ccc4ncnn4c3)c(-c3cccc(C)n3)[nH]2)c1 [Example 31, N-((4-([1,2,4]triazolo[1,5-a]pyridin-6-yl)-5-(6-methylpyridin-2-yl)-1H-imidazol-2-yl)methyl)-3-ethylaniline] | –
7.97 | CCc1ccccc1NCc1nc(-c2ccc3ncnn3c2)c(-c2cccc(C)n2)[nH]1 [Example 30, N-((4-([1,2,4]triazolo[1,5-a]pyridin-6-yl)-5-(6-methylpyridin-2-yl)-1H-imidazol-2-yl)methyl)-2-ethylaniline] | –
– | Cc1cccc(-c2[nH]c(CNc3ccccc3C#N)nc2-c2ccc3ncnn3c2)n1 [Example 59, 2-((4-([1,2,4]triazolo[1,5-a]pyridin-6-yl)-5-(6-methylpyridin-2-yl)-1H-imidazol-2-yl)methylamino)benzonitrile] | 7.71
7.60 | Cc1cccc(-c2[nH]c(Cc3ccccc3F)nc2-c2ccc3ncnn3c2)n1 [Example 144, 6-(2-(2-fluorobenzyl)-5-(6-methylpyridin-2-yl)-1H-imidazol-4-yl)-[1,2,4]triazolo[1,5-a]pyridine] | –

pIC50 [1] | Structure (SMILES) | pIC50
7.35 | COc1ccc(NCc2nc(-c3ccc4ncnn4c3)c(-c3cccc(C)n3)[nH]2)cc1OC [Example 46, N-((4-([1,2,4]triazolo[1,5-a]pyridin-6-yl)-5-(6-methylpyridin-2-yl)-1H-imidazol-2-yl)methyl)-3,4-dimethoxyaniline] | –
7.85 | Cc1cccc(-c2[nH]c(CNc3ccccc3C(C)C)nc2-c2ccc3ncnn3c2)n1 [Example 33, N-((4-([1,2,4]triazolo[1,5-a]pyridin-6-yl)-5-(6-methylpyridin-2-yl)-1H-imidazol-2-yl)methyl)-2-isopropylaniline] | –
7.41 | CC(=O)Nc1ccc(NCc2nc(-c3ccc4ncnn4c3)c(-c3cccc(C)n3)[nH]2)cc1 [Example 76, N-(4-((4-([1,2,4]triazolo[1,5-a]pyridin-6-yl)-5-(6-methylpyridin-2-yl)-1H-imidazol-2-yl)methylamino)phenyl)acetamide] | –
7.74 | Cc1cccc(-c2[nH]c(CNc3cccc(C)c3C)nc2-c2ccc3ncnn3c2)n1 [Example 27, N-((4-([1,2,4]triazolo[1,5-a]pyridin-6-yl)-5-(6-methylpyridin-2-yl)-1H-imidazol-2-yl)methyl)-2,3-dimethylaniline] | –
7.97 | Cc1cccc(-c2[nH]c(CNc3ccc(Cl)cc3)nc2-c2ccc3ncnn3c2)n1 [Example 14, N-((4-([1,2,4]triazolo[1,5-a]pyridin-6-yl)-5-(6-methylpyridin-2-yl)-1H-imidazol-2-yl)methyl)-4-chloroaniline] | –
7.40 | CSc1ccc(NCc2nc(-c3ccc4ncnn4c3)c(-c3cccc(C)n3)[nH]2)cc1 [Example 58, N-((4-([1,2,4]triazolo[1,5-a]pyridin-6-yl)-5-(6-methylpyridin-2-yl)-1H-imidazol-2-yl)methyl)-4-(methylthio)aniline] | –
7.88 | Cc1cccc(-c2[nH]c(CNc3ccccc3)nc2-c2ccc3ncnn3c2)n1 [Example 1, N-((4-([1,2,4]triazolo[1,5-a]pyridin-6-yl)-5-(6-methylpyridin-2-yl)-1H-imidazol-2-yl)methyl)aniline] | –
7.86 | Cc1cccc(-c2[nH]c(CNc3ccccc3C)nc2-c2ccc3ncnn3c2)n1 [Example 23, N-((4-([1,2,4]triazolo[1,5-a]pyridin-6-yl)-5-(6-methylpyridin-2-yl)-1H-imidazol-2-yl)methyl)-2-methylaniline] | –
7.11 | COC(=O)c1ccc(NCc2nc(-c3ccc4ncnn4c3)c(-c3cccc(C)n3)[nH]2)cc1 [Example 73, Methyl 4-((4-([1,2,4]triazolo[1,5-a]pyridin-6-yl)-5-(6-methylpyridin-2-yl)-1H-imidazol-2-yl)methylamino)benzoate] | –
7.82 | Cc1cccc(-c2[nH]c(CNc3cccc(NS(C)(=O)=O)c3)nc2-c2ccc3ncnn3c2)n1 [Example 78, N-(3-((4-([1,2,4]triazolo[1,5-a]pyridin-6-yl)-5-(6-methylpyridin-2-yl)-1H-imidazol-2-yl)methylamino)phenyl)methanesulfonamide] | –
7.91 | Cc1cccc(-c2[nH]c(Cc3cccc(C#N)c3)nc2-c2ccc3ncnn3c2)n1 [Example 145, 3-((4-([1,2,4]triazolo[1,5-a]pyridin-6-yl)-5-(6-methylpyridin-2-yl)-1H-imidazol-2-yl)methyl)benzonitrile] | –
8.12 | Cc1cccc(-c2[nH]c(CNc3ccc(Cl)c(Cl)c3)nc2-c2ccc3ncnn3c2)n1 [Example 16, N-((4-([1,2,4]triazolo[1,5-a]pyridin-6-yl)-5-(6-methylpyridin-2-yl)-1H-imidazol-2-yl)methyl)-3,4-dichloroaniline] | –
7.91 | Cc1cccc(-c2[nH]c(CNc3cccc(Cl)c3Cl)nc2-c2ccc3ncnn3c2)n1 [Example 15, N-((4-([1,2,4]triazolo[1,5-a]pyridin-6-yl)-5-(6-methylpyridin-2-yl)-1H-imidazol-2-yl)methyl)-2,3-dichloroaniline] | –
7.40 | Cc1cccc(-c2[nH]c(Cc3cccc(C(N)=O)c3)nc2-c2ccc3ncnn3c2)n1 [Example 147, 3-((4-([1,2,4]triazolo[1,5-a]pyridin-6-yl)-5-(6-methylpyridin-2-yl)-1H-imidazol-2-yl)methyl)benzamide] | –
8.19 | Cc1cccc(-c2[nH]c(CNc3cc(F)cc(F)c3)nc2-c2ccc3ncnn3c2)n1 [Example 9, N-((4-([1,2,4]triazolo[1,5-a]pyridin-6-yl)-5-(6-methylpyridin-2-yl)-1H-imidazol-2-yl)methyl)-3,5-difluoroaniline] | –
7.84 | Cc1cccc(-c2[nH]c(CNc3cc(Cl)cc(Cl)c3)nc2-c2ccc3ncnn3c2)n1 [Example 17, N-((4-([1,2,4]triazolo[1,5-a]pyridin-6-yl)-5-(6-methylpyridin-2-yl)-1H-imidazol-2-yl)methyl)-3,5-dichloroaniline] | –
7.84 | COc1cccc(NCc2nc(-c3ccc4ncnn4c3)c(-c3cccc(C)n3)[nH]2)c1 [Example 43, N-((4-([1,2,4]triazolo[1,5-a]pyridin-6-yl)-5-(6-methylpyridin-2-yl)-1H-imidazol-2-yl)methyl)-3-methoxyaniline] | –
